Literature values as cited in patent publication US20200069728A1, “HYPOCHLOROUS ACID BASED EYE DROP AND OPHTHALMIC COMPOSITION” (priority 2018, published 2020).

Conditions: non-stabilized hypochlorous acid, background statement

OCl [hypochlorous acid]
potency lost per day: 1-2%
